From the supplement of paper PMC10307832

Legend:
Experiment in all cases: relative viability (nuclei count vs DMSO), 5 days (fraction); higher = more cells survive
[1] = compound: C(C(=O)C(=O)O)Br [Bromopyruvate] + CC1(C)CCC(c2ccc(Cl)cc2)=C(CN2CCN(c3ccc(C(=O)NS(=O)(=O)c4ccc(N[C@H](CCN5CCOCC5)CSc5ccccc5)c(S(=O)(=O)C(F)(F)F)c4)cc3)CC2)C1 [Navitoclax] (partner 0.5 µM)
Procedure, shortened: (§1)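 Relative viability is defined as nuclei in treated wells over nuclei in vehicle wells. Duplicate plates were run and medians reported. Lung cancer cell lines in 1536-well plates were dosed by pin tool one day after seeding, with one drug or with a fixed anchor-drug dose plus five library-drug doses (not always all listed) in √10 steps, and nuclei were counted after 5 days.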

[2] = compound: CC(O)(CS(=O)(=O)c1ccc(F)cc1)C(=O)Nc1ccc(C#N)c(C(F)(F)F)c1 [Bicalutamide] + N=C(N)NC(=N)NCCc1ccccc1 [Phenformin] (partner 250 µM)
Procedure, shortened: as §1

[3] = compound: CC(O)(CS(=O)(=O)c1ccc(F)cc1)C(=O)Nc1ccc(C#N)c(C(F)(F)F)c1 [Bicalutamide]
Procedure, shortened: (§2)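 Viability here means nuclei in treated wells divided by nuclei in vehicle wells, reported as the median across plates. Only plates with control CV below 25% and at least one doubling passed. Lung cancer cell lines in 1536-well plates were exposed to five √10-spaced library-drug doses for 5 days and counted from 4× Hoechst images in MetaXpress.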

[4] = compound: C(C(=O)C(=O)O)Br [Bromopyruvate]
Procedure, shortened: as §2

Row | Cell Line | relative viability ([1]; first compound 1 µM) | relative viability ([1]; first compound 3.162 µM) | relative viability ([1]; first compound 10 µM) | relative viability ([1]; first compound 31.62 µM) | relative viability ([1]; first compound 100 µM) | relative viability ([2]; first compound 0.08 µM) | relative viability ([2]; first compound 0.253 µM) | relative viability ([2]; first compound 0.8 µM) | relative viability ([2]; first compound 2.53 µM) | relative viability ([3]; 0.08 µM) | relative viability ([3]; 0.253 µM) | relative viability ([3]; 0.8 µM) | relative viability ([3]; 2.53 µM) | relative viability ([4]; 1 µM) | relative viability ([4]; 3.162 µM) | relative viability ([4]; 10 µM) | relative viability ([4]; 31.62 µM) | relative viability ([4]; 100 µM)
1 | CAL-12T | 1.06 | 1.23 | 1.34 | 1.34 | 1.08 | 0.609 | 0.505 | 0.626 | 0.493 | 1.03 | 0.855 | 1.11 | 0.842 | 0.972 | 0.982 | 0.919 | 0.982 | 0.956
2 | SK-LU-1 | 0.866 | 0.971 | 0.935 | 0.734 | 0.574 | 0.571 | 0.519 | 0.637 | 0.48 | 1.11 | 1.02 | 1.23 | 1.02 | 1.07 | 0.93 | 1.2 | 0.935 | 0.943
3 | NCI-H1650 | 1.09 | 1.31 | 1.42 | 1.47 | 1.19 | 0.429 | 0.375 | 0.493 | 0.378 | 0.967 | 0.935 | 1.1 | 0.842 | 0.998 | 0.835 | 0.959 | 0.938 | 0.865
4 | BEN | 0.0705 | 0.0702 | 0.072 | 0.0664 | 0.0566 | 0.257 | 0.262 | 0.28 | 0.279 | 1.01 | 0.876 | 1.34 | 1.03 | 1.07 | 0.949 | 0.971 | 0.951 | 0.934
5 | EMC-BAC-2 | 1.02 | 1.17 | 1.31 | 1.15 | 1.25 | 0.541 | 0.554 | 0.609 | 0.46 | 1.03 | 0.894 | 1.05 | 0.822 | 0.982 | 0.933 | 0.986 | 0.804 | 1.01
6 | ABC-1 | – | – | – | – | – | 0.26 | 0.229 | 0.253 | 0.212 | 0.998 | 0.857 | 0.951 | 0.943 | 1.14 | 0.935 | 0.807 | 0.995 | 0.945
7 | NCI-H1299 | 1.04 | 1.07 | 1.03 | 1.03 | 1.02 | – | – | – | – | 1.01 | 1.04 | 1.05 | 1 | 1.01 | 1 | 1.04 | 0.968 | 0.983
8 | EBC-1 | 0.448 | 0.528 | 0.433 | 0.453 | 0.358 | – | – | – | – | 0.977 | 1.02 | 1.1 | 0.976 | 0.912 | 0.94 | 1.14 | 0.935 | 0.987
9 | NCI-H2342 | – | – | – | – | – | 0.641 | 0.466 | 0.702 | 0.608 | 1.06 | 0.978 | 1.07 | 1.03 | 0.975 | 0.912 | 1.02 | 0.949 | 0.903
10 | NCI-H661 | – | – | – | – | – | 0.289 | 0.284 | 0.289 | 0.251 | 0.987 | 0.998 | 1.04 | 1.01 | 1.02 | 0.992 | 1.02 | 1.01 | 0.972
11 | NCI-H650 | – | – | – | – | – | 0.52 | 0.433 | 0.466 | 0.395 | 1.08 | 1.03 | 1.11 | 0.837 | 0.944 | 1 | 0.98 | 0.887 | 0.895
12 | NCI-H358 | – | – | – | – | – | 0.336 | 0.344 | 0.401 | 0.35 | 0.988 | 0.865 | 1.13 | 1.06 | 1.03 | 1.02 | 0.939 | 0.909 | 0.929
13 | NCI-H1563 | – | – | – | – | – | 0.695 | 0.718 | 0.654 | 0.629 | 0.965 | 0.978 | 1.01 | 0.852 | 0.952 | 0.97 | 0.973 | 0.926 | 0.987
14 | SW 900 | – | – | – | – | – | 0.511 | 0.555 | 0.874 | 0.411 | 0.847 | 0.858 | 0.9 | 0.742 | 0.923 | 0.774 | 0.754 | 0.881 | 0.883
15 | IA-LM | 0.798 | 0.723 | 0.654 | 0.763 | 0.818 | – | – | – | – | 1.02 | 0.936 | 1.18 | 0.95 | 1.03 | 0.96 | 0.983 | 0.884 | 0.924
16 | NCI-H1703 | 1.06 | 1.22 | 1.42 | 1.34 | 1.16 | – | – | – | – | 0.941 | 1.01 | 0.983 | 0.738 | 0.914 | 0.981 | 0.955 | 0.94 | 0.778
17 | LCLC-103H | – | – | – | – | – | 0.305 | 0.326 | 0.379 | 0.355 | 0.986 | 0.971 | 1.08 | 0.918 | 0.953 | 0.992 | 1.11 | 0.994 | 0.976
18 | NCI-H1648 | – | – | – | – | – | – | – | – | – | – | 0.662 | 0.93 | 1.2 | 0.878 | 0.916 | 0.991 | 0.769 | 0.773
